Experimental data taken from patent US20240122941A1, “THERAPY BASED ON SYNTHETIC LETHALITY IN SWI/SNF COMPLEX-DYSFUNCTION CANCER” (NATIONAL CANCER CENTER, priority 2020, published 2024).
pIC50: −log10 of the molar value. Where two headings read alike, the source gives them in different places.

Key:
[1] = tested on: CHLA-06-ATRT cells (atypical teratoid/rhabdoid tumor derived, SMARCB1 deficient); test: Cell growth suppression experiment (CellTiter-Glo), CHLA-06-ATRT cells; settings: 72 h, read-out: IC50 CHLA-06-ATRT
[2] = tested on: JMU-RTK-2 cells (malignant rhabdoid tumor derived, SMARCB1 deficient); test: Selectivity in cell growth suppression, JMU-RTK-2 cells; settings: for pIC50: read-out: JMU-RTK-2 IC50
[3] = tested on: H460 cells (pulmonary adenocarcinoma derived, SMARCA2/A4 wild-type); test: Cell growth suppression experiment (CellTiter-Glo), H460 cells; type: cell-based; settings: for pIC50: cultured for 6 days, CellTiter-Glo; for viability at 10 µM: read-out: cell survival rate (%) at treatment with 10 μM, H460;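 for all read-outs here: luminescent viability read-out, compound added one day after seeding at 0.1% final DMSO, cells grown in DMEM-F12 with 10% fetal bovine serum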
[4] = tested on: H1693 cells (pulmonary adenocarcinoma derived, SMARCA4 deficient); test: Cell growth suppression experiment (CellTiter-Glo), H1693 cells; type: cell-based; settings: Homo sapiens, NCI-H1693, 72 h, cultured for 3 days
Method: (§1) Cytotoxic activity of a CBP/P300 inhibitor on SMARCA4 deficient cells, i.e., H1693 cells (pulmonary adenocarcinoma derived) and H1819 cells (pulmonary adenocarcinoma derived), and SMARCA4 wild-type cells, i.e., H647 cells.
(§2) H1693 cells, H1819 cells, and H647 cells were obtained from the ATCC. The H1693 cells and H647 cells were cultured under 5% CO 2 conditions at 37° C. in a 10% fetal bovine serum and 1% penicillin/streptomycin-containing RPMI1640 medium. H1819 cells were cultured under 5% CO2 conditions at 37° C. in a 5% fetal bovine serum and 1% penicillin/streptomycin-containing RPMI1640 medium.
(§3) A 384-well plate was seeded with 500 cells per well. […] After completion of culture, the cell survival rate was measured using CellTiter-Glo Luminescent Cell Viability Assay (Promega, G7570).

[5] = tested on: SMARCA4 deficient cells, i.e., H1693 cells and H1819 cells; test: Cell growth suppression experiment, SMARCA4 deficient cells (summary of Example 11); type: cell-based; settings: result in words
Method: as §1, §2, §3

[6] = tested on: H23 cells (pulmonary adenocarcinoma derived, SMARCA2/A4 deficient); test: Cell growth suppression experiment (CellTiter-Glo), H23 cells; type: cell-based; settings: for pIC50: cultured for 6 days, CellTiter-Glo;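 for all read-outs here: compounds tested as CBP/P300 agents, added one day after plating in 96-well plates with DMEM-F12 plus 10% fetal bovine serum, 0.1% DMSO final, luminescent viability read-out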
[7] = tested on: H647 cells (SMARCA4 wild-type); test: Cell growth suppression experiment (CellTiter-Glo), H647 cells; type: cell-based
Method: as §1, §2, §3

[8] = tested on: 786-O cells (renal cancer derived, SMARCB1 wild-type); test: Cell growth suppression experiment (CellTiter-Glo), 786-O cells; settings: for pIC50: read-out: IC50 786-O; for viability at 10 µM: read-out: cell survival rate (%) at treatment with 10 μM, 786-O
[9] = tested on: TOV112D cells (small cell ovarian cancer derived, SMARCA2/A4 deficient); test: Cell growth suppression experiment (CellTiter-Glo), TOV112D cells; type: cell-based; settings: for pIC50: cultured for 6 days, CellTiter-Glo;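 for all read-outs here: luminescent viability read-out of TOV112D cells grown in DMEM-F12 with 10% fetal bovine serum, compound exposure starting one day after plating, DMSO at 0.1% final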
[10] = tested on: DMS114 cells (small cell lung cancer derived, SMARCA2/A4 deficient); test: Cell growth suppression experiment (CellTiter-Glo), DMS114 cells; type: cell-based; settings: for pIC50: cultured for 6 days, CellTiter-Glo
[11] = tested on: ARID1 deficient cancer cell group versus ARID1 wild-type cell group; test: Experiment comparing sensitivity depending on the presence/absence of ARID1; type: cell-based; settings: 6 days culture, CellTiter-Glo, FIG. 12; result in words
Text: Cytotoxic activity of a CBP/P300 inhibitor on ARID1 deficient cancer cells, i.e., A2780 cells (ovarian cancer derived), RMG-V cells (ovarian cancer derived), TOV21G cells (ovarian cancer derived), and OVISE cells (ovarian cancer derived), and ARID1 wild-type cells, i.e., H1048 cells, H460 cells, 786-O cells, H2228 cells, H2009 cells, and H358 cells, was compared.

[12] = tested on: SMARCB1 deficient cells, i.e., G-401 cells, G-402 cells, and CHLA-06-ATRT cells; test: Cell growth suppression experiment, SMARCB1 deficient cells (summary of Example 1); settings: G-401, G-402 and CHLA-06-ATRT cells versus 786-O cells; result in words
[13] = tested on: SMARCA2/A4 deficient cells, i.e., H23 cells, DMS114 cells, and TOV112D cells; test: Cell growth suppression experiment, SMARCA2/A4 deficient cells (summary of Example 8); type: cell-based; settings: H23, DMS114 and TOV112D cells versus H460 cells; result in words
Method: Cytotoxic activity of a CBP/P300 on SMARCA2/A4 deficient cells, i.e., H23 cells (pulmonary adenocarcinoma derived), TOV112D cells (small cell ovarian cancer derived), and DMS114 cells (small cell lung cancer derived), and SMARCA2/A4 wild-type cells, i.e., H460 cells (pulmonary adenocarcinoma derived) was compared.
H23 cells, TOV112D cells, DMS114 cells, and H460 cells were cultured under 5% CO2 conditions at 37° C. in a 10% fetal bovine serum and 1% penicillin/streptomycin-containing DMEM-F12 medium.
Cells were seed on a 96-well plate at 250 to 500 cells per well. […] After completion of culture, the cell survival rate was measured using CellTiter-Glo Luminescent Cell Viability Assay (Promega, G770).

[14] = tested on: JMU-RTK-2+SMARCB1 cells (JMU-RTK-2 cells overexpressing SMARCB1); test: Selectivity in cell growth suppression, JMU-RTK-2+SMARCB1 cells; settings: read-out: JMU-RTK-2 + SMARCB1 IC50
[15] = tested on: G-401 cells (malignant rhabdoid tumor derived, SMARCB1 deficient); test: Cell growth suppression experiment (CellTiter-Glo), G-401 cells; settings: for pIC50: read-out: IC50 G-401
[16] = tested on: H1819 cells (pulmonary adenocarcinoma derived, SMARCA4 deficient); test: Cell growth suppression experiment (CellTiter-Glo), H1819 cells; type: cell-based; settings: NCI-H1819, 72 h, cultured for 3 days
Method: as §1, §2, §3

[17] = target: CBP bromodomain (Homo sapiens (Human), UniProt Q92793); test: BRD inhibition experiment, CBP bromodomain TR-FRET Assay Kit
Sequence of CBP bromodomain (Q92793 1085-1192): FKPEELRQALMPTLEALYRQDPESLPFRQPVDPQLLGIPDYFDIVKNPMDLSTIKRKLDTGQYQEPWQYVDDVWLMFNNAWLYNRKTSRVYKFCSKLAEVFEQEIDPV

[18] = tested on: SMARCB1 deficient cell group versus SMARCB1 wild-type cell group; test: Experiment comparing sensitivity depending on the presence/absence of SMARCB1; type: cell-based; settings: 6 days culture, CellTiter-Glo, FIG. 3; result in words
Text: Cytotoxic activity of a CBP/P300 inhibitor on SMARCB1 deficient cells, i.e., G-401 cells (malignant rhabdoid tumor derived), G-402 cells (malignant rhabdoid tumor derived), JMU-RTK-2 cells (malignant rhabdoid tumor derived), and HS-EU-1 cells (epithelioid sarcoma derived), and SMARCB1 wild-type cells, i.e., 786-O cells (renal cancer derived), VMRC-RCZ cells (renal cancer derived), Caki-1 cells (renal cancer derived), H446 cells (lung cancer derived), ES2 cells (ovarian cancer derived), H460 cells (lung cancer derived), H2228 cells (lung cancer derived), HEK293T cells (normal kidney tissue derived), and H358 cells (lung cancer derived) was compared.

[19] = tested on: G-402 cells (malignant rhabdoid tumor derived, SMARCB1 deficient); test: Cell growth suppression experiment (CellTiter-Glo), G-402 cells; settings: Homo sapiens, G-402, 72 h, read-out: IC50 G-402
[20] = tested on: histone H3K27 acetylation in G-401 cells and CHLA-06-ATRT cells; test: Intracellular histone H3K27 acetylation inhibition experiment (Western blotting); type: cell-based; settings: G-401 and CHLA-06-ATRT cells, 24 hours, FIG. 7
Method: G-401 cells (malignant rhabdoid tumor derived) and CHLA-06-ATRT cells (atypical teratoid/rhabdoid tumor derived) were seeded on a 6-well plate at 500000 cells per well. […] After completion of culture, the cells were detached through trypsin treatment. The culture was centrifuged and the supernatant was removed to recover cell pellets. 150 μL of RIPA buffer was added to the cell pellets to lyse the cells to extract the entire protein. Acetylation of histone H3K27 was detected by Western blotting. An anti-acetylation H3K27 antibody (Cell Signaling Technology, 8173) was used for the detection of acetylated H3K27 (FIG. 7).

[21] = Homo sapiens, NCI-H460, 144 h, 10 μM, 6 days
[22] = Homo sapiens, DMS-114, 144 h, DMS114 cells

Structure (SMILES) | IC50 value for the ARID1 deficient cancer cell group compared with the ARID1 wild-type cell group [11] | cell growth suppression effect on SMARCB1 deficient cells [12] | cell growth suppression effect on SMARCA2/A4 deficient cells [13] | pIC50 ([2]; 144 h) | viability at 10 µM [3, 21] [%] | pIC50 ([3]; Homo sapiens, NCI-H460, 144 h) | pIC50 ([6]; Homo sapiens, NCI-H23, 144 h) | pIC50 ([8]; Homo sapiens, 786-0, 72 h) | viability at 10 µM ([8]; Homo sapiens, 786-0, 72 h) [%] | pIC50 ([9]; Homo sapiens, 144 h) | pIC50 [10, 22] | pIC50 ([14]; 144 h) | pIC50 ([15]; Homo sapiens, G-401, 72 h) | IC50 value for the SMARCB1 deficient cell group compared with the SMARCB1 wild-type cell group [18] | also measured
CNC(=O)Cn1cc(-c2ccc3c(c2)C(F)CC32NC(=O)N(CC(=O)N(Cc3ccc(F)cc3)[C@@H](C)C(F)(F)F)C2=O)cn1 (single isomer, unassigned) [Compound 4] | less than the IC50 value for the ARID1 wild-type cell group | selective and potent Cell growth suppression effect | particularly selective and potent cell growth suppression effect |  |  |  |  |  |  |  |  |  |  |  | pIC50 [1]: 6.74; pIC50 ([2]; JMU-RTK-2 cells, cultured for 6 days, CellTiter-Glo): 8.00; cell survival rate (%) at treatment with 10 μM, H460 ([3]; 10 μM, 6 days): 78%; pIC50 [3]: < 5.00; pIC50 [4]: 6.89; cell growth suppression effect on SMARCA4 deficient cells [5]: selective and potent cell growth suppression effect; pIC50 [6]: 6.61; cell survival rate (%) at treatment with 10 μM, H647 ([7]; H647 cells, 10 μM, 3 days): 60%; pIC50 ([7]; Homo sapiens, NCI-H647, 72 h, H647 cells, cultured for 3 days, CellTiter-Glo): < 5.00; cell growth suppression effect on SMARCA4 expressing H647 cells ([7]; result in words): hardly any cell growth suppression effect; cell survival rate (%) at treatment with 10 μM, 786-O ([8]; 786-O cells, 10 μM (maximum treatment concentration), 3 days): 93%; pIC50 ([8]; 786-O cells, cultured for 3 days, CellTiter-Glo cell survival): < 5.00; pIC50 [9]: 6.85; pIC50 ([10]; DMS114 cells): 7.43; pIC50 ([14]; JMU-RTK-2+SMARCB1 cells, cultured for 6 days, CellTiter-Glo): 5.85; pIC50 ([15]; G-401 cells, cultured for 3 days, CellTiter-Glo cell survival): 7.74; pIC50 [16]: 5.27
Cn1cc(C(=O)Nc2ccc3c(c2)OCCO3)c2ccccc2c1=O [Compound 12] |  |  |  | 5.41 | 100 | < 5.00 | < 5.00 | < 5.00 | 104 | < 5.00 | < 5.00 | 4.83 | < 5.00 |  | Selective Index ([2]; IC50 of JMU-RTK-2+SMARCB1 cells with respect to IC50 of JMU-RTK-2 cells): 3.9; pIC50 [17]: > 7.60; cell survival rate (%) at treatment with 10 μM, H23 ([6]; 10 μM, 6 days): 97%; cell survival rate (%) at treatment with 10 μM, TOV112D ([9]; 10 μM, 6 days): 99%; cell survival rate (%) at treatment with 10 μM, DMS114 ([10]; DMS114 cells, 10 μM, 6 days): 86%; cell growth suppression effect on DMS114 cells ([10]; result in words): cell growth suppression effect; cell survival rate (%) at treatment with 10 μM, G-401 ([15]; G-401 cells, 10 μM (maximum treatment concentration), 3 days): 83%
CNC(=O)Nc1ccc2c(c1)CC[C@]21OC(=O)N(CC(=O)N(Cc2ccc(F)cc2)[C@@H](C)C(F)(F)F)C1=O [Compound 16] | less than the IC50 value for the ARID1 wild-type cell group | selective and potent Cell growth suppression effect | particularly selective and potent cell growth suppression effect | 6.89 | 62 | < 5.00 | 6.06 | < 5.00 | 94 | 6.36 | 6.55 | 4.89 | 6.46 | less than the IC50 value for the SMARCB1 wild-type cell group | pIC50 [19]: 5.05
COc1ccc(CCc2nc3cc(-c4c(C)noc4C)ccc3n2C[C@H](C)N2CCOCC2)cc1Cl [SGC-CBP30, reference compound] |  |  |  |  |  |  |  |  |  |  |  |  |  | less than the IC50 value for the SMARCB1 wild-type cell group | intracellular histone H3K27 acetylation [20]: reduced treatment concentration dependent intracellular histone H3K27 acetylation
